Test results published in PubChem BioAssay AID328 (DTP/NCI, 2004).
Where “and” joins values, the source holds several entries; their conditions need not be identical. Equal values may be shown once. Inconclusive results and toxic doses are left out.

Test system: BDF1 mice, P388 leukemia ip, median survival T/C
Assay: NCI In Vivo Anticancer Drug Screen. Data for tumor model P388 Leukemia (intraperitoneal) in B6D2F1 (BDF1) mice
Conditions: endpoint: median survival time, higher = longer survival
Outline: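 Transplantable tumour in mice; compound vs vehicle dosing; survival scored; ratio of treated to control reported.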

[1] = dose: 50.0 mg/kg/injection, schedule: Q01DX009 (ip), vehicle: saline with Tween-80
[2] = dose: 100.0 mg/kg/injection, schedule: Q01DX009 (ip), vehicle: saline with Tween-80
[3] = dose: 100.0 mg/kg/injection, schedule: Q04DX003 (ip), vehicle: saline with Tween-80
[4] = dose: 200.0 mg/kg/injection, schedule: Q04DX003 (ip), vehicle: saline with Tween-80

## C[C@@H]1C[C@@H]([C@H](O)CC2CC(=O)NC(=O)C2)C(=O)[C@@H](C)C1
dose: 5.0 mg/kg/injection, schedule: Q01DX010 (ip), vehicle: saline
  T/C: 100 % of control and 104 % of control
dose: 10.0 mg/kg/injection, schedule: Q01DX010 (ip), vehicle: saline
  T/C: 90 % of control and 114 % of control
dose: 15.0 mg/kg/injection, schedule: Q01DX009 (ip), vehicle: Klucel (hydroxypropylcellulose) (HPC)
  T/C: 100 % of control
dose: 20.0 mg/kg/injection, schedule: Q01DX010 (ip), vehicle: saline
  T/C: 100 % of control (2×) and 119 % of control
dose: 30.0 mg/kg/injection, schedule: Q01DX009 (ip), vehicle: Klucel (hydroxypropylcellulose) (HPC)
  T/C: 90 % of control
dose: 39.9 mg/kg/injection, schedule: Q04DX003 (ip), vehicle: Klucel (hydroxypropylcellulose) (HPC)
  T/C: 114 % of control
dose: 39.9 mg/kg/injection, schedule: Q04DX003 (sc), vehicle: Klucel (hydroxypropylcellulose) (HPC)
  T/C: 110 % of control
dose: 40.0 mg/kg/injection, schedule: Q01DX010 (ip), vehicle: saline
  T/C: 115 % of control and 118 % of control
dose: 50.0 mg/kg/injection, schedule: Q04DX003 (ip), vehicle: other
  T/C: 121 % of control
dose: 60.0 mg/kg/injection, schedule: Q01DX009 (ip), vehicle: Klucel (hydroxypropylcellulose) (HPC)
  T/C: 90 % of control
dose: 60.0 mg/kg/injection, schedule: Q01DX010 (ip), vehicle: saline
  T/C: 168 % of control
dose: 60.0 mg/kg/injection, schedule: Q04DX003 (ip), vehicle: Klucel (hydroxypropylcellulose) (HPC)
  T/C: 118 % of control
dose: 64.8 mg/kg/injection, schedule: Q01DX001 (sc), vehicle: Klucel (hydroxypropylcellulose) (HPC)
  T/C: 108 % of control
dose: 64.8 mg/kg/injection, schedule: Q04DX003 (ip), vehicle: Klucel (hydroxypropylcellulose) (HPC)
  T/C: 119 % of control
dose: 64.8 mg/kg/injection, schedule: Q04DX003 (sc), vehicle: Klucel (hydroxypropylcellulose) (HPC)
  T/C: 107 % of control
dose: 100.0 mg/kg/injection, schedule: Q04DX003 (ip), vehicle: other
  T/C: 178 % of control
dose: 108.0 mg/kg/injection, schedule: Q01DX001 (ip), vehicle: Klucel (hydroxypropylcellulose) (HPC)
  T/C: 109 % of control
dose: 108.0 mg/kg/injection, schedule: Q01DX001 (sc), vehicle: Klucel (hydroxypropylcellulose) (HPC)
  T/C: 110 % of control
dose: 108.0 mg/kg/injection, schedule: Q04DX003 (ip), vehicle: Klucel (hydroxypropylcellulose) (HPC)
  T/C: 118 % of control
dose: 108.0 mg/kg/injection, schedule: Q04DX003 (sc), vehicle: Klucel (hydroxypropylcellulose) (HPC)
  T/C: 96 % of control
dose: 120.0 mg/kg/injection, schedule: Q04DX003 (ip), vehicle: Klucel (hydroxypropylcellulose) (HPC)
  T/C: 90 % of control
dose: 180.0 mg/kg/injection, schedule: Q01DX001 (ip), vehicle: Klucel (hydroxypropylcellulose) (HPC)
  T/C: 108 % of control
dose: 180.0 mg/kg/injection, schedule: Q01DX001 (sc), vehicle: Klucel (hydroxypropylcellulose) (HPC)
  T/C: 116 % of control
dose: 180.0 mg/kg/injection, schedule: Q04DX003 (ip), vehicle: Klucel (hydroxypropylcellulose) (HPC)
  T/C: 98 % of control
dose: 200.0 mg/kg/injection, schedule: Q04DX003 (ip), vehicle: other
  T/C: 97 % of control
dose: 300.0 mg/kg/injection, schedule: Q01DX001 (ip), vehicle: Klucel (hydroxypropylcellulose) (HPC)
  T/C: 114 % of control
dose: 300.0 mg/kg/injection, schedule: Q01DX001 (sc), vehicle: Klucel (hydroxypropylcellulose) (HPC)
  T/C: 118 % of control

## O=C(O)C1OC(n2cc([N+](=O)[O-])c(=O)[nH]c2=O)C(O)C1O (stereo not drawn)
dose: 25.0 mg/kg/injection, schedule: Q01DX009 (ip), vehicle: saline with Tween-80
  T/C: 95 % of control
[1]
  T/C: 96 % of control
[2]
  T/C: 93 % of control

## CCCCC(=O)/C=C/c1ccccc1
[1]
  T/C: 102 % of control
[2]
  T/C: 109 % of control
dose: 200.0 mg/kg/injection, schedule: Q01DX009 (ip), vehicle: saline with Tween-80
  T/C: 120 % of control

## COc1cc2c(cc1OC(C)=O)C(=O)CCCC2
[3]
  T/C: 89 % of control
[4]
  T/C: 103 % of control
dose: 400.0 mg/kg/injection, schedule: Q04DX003 (ip), vehicle: saline with Tween-80
  T/C: 99 % of control

## Oc1ccc(C2N(c3ccccc3)CCN2c2ccccc2)cc1
[3]
  T/C: 110 % of control
[4]
  T/C: 86 % of control

## CN(C(=O)N(C)c1ccccc1)c1ccccc1
dose: 100.0 mg/kg/injection, schedule: Q01DX009 (ip), vehicle: Klucel (hydroxypropylcellulose) (HPC)
  T/C: 100 % of control
dose: 100.0 mg/kg/injection, schedule: Q04DX003 (ip), vehicle: Klucel (hydroxypropylcellulose) (HPC)
  T/C: 91 % of control
dose: 200.0 mg/kg/injection, schedule: Q01DX009 (ip), vehicle: Klucel (hydroxypropylcellulose) (HPC)
  T/C: 90 % of control
dose: 200.0 mg/kg/injection, schedule: Q04DX003 (ip), vehicle: Klucel (hydroxypropylcellulose) (HPC)
  T/C: 91 % of control
dose: 400.0 mg/kg/injection, schedule: Q01DX009 (ip), vehicle: Klucel (hydroxypropylcellulose) (HPC)
  T/C: 100 % of control
dose: 400.0 mg/kg/injection, schedule: Q04DX003 (ip), vehicle: Klucel (hydroxypropylcellulose) (HPC)
  T/C: 87 % of control

## O=C1C=C(Nc2ccc(Cl)cc2)C(Nc2ccc(Cl)cc2)=CC1=O
dose: 62.5 mg/kg/injection, schedule: Q01DX009 (ip), vehicle: saline with Tween-80
  T/C: 89 % of control
dose: 125.0 mg/kg/injection, schedule: Q01DX009 (ip), vehicle: saline with Tween-80
  T/C: 87 % of control
dose: 250.0 mg/kg/injection, schedule: Q01DX009 (ip), vehicle: saline with Tween-80
  T/C: 91 % of control

## CC[C@@]1(O)C[C@H](OC2CC(N(C)C)C(OC3CC(O)C(OC4CC(O)C(O)C(C)O4)C(C)O3)C(C)O2)c2c(cc3c(c2O)C(=O)c2c(O)ccc(O)c2C3=O)[C@H]1C(=O)OC (stereo partly drawn)
dose: 1.08 mg/kg/injection, schedule: Q04DX003 (ip), vehicle: water
  T/C: 185 % of control
dose: 1.8 mg/kg/injection, schedule: Q04DX003 (ip), vehicle: water
  T/C: 194 % of control
dose: 1.9 mg/kg/injection, schedule: Q01DX001 (ip), vehicle: other
  T/C: 169 % of control
dose: 3.8 mg/kg/injection, schedule: Q01DX001 (ip), vehicle: other
  T/C: 196 % of control
dose: 5.0 mg/kg/injection, schedule: Q04DX003 (ip), vehicle: water
  T/C: 101 % of control
dose: 7.5 mg/kg/injection, schedule: Q01DX001 (ip), vehicle: other
  T/C: 198 % of control

## c1ccc(NNc2c3ccccc3nc3ccccc23)cc1
[1]
  T/C: 102 % of control
[2]
  T/C: 102 % of control

## CC1(C)OC(C)(C)c2c1nnc(-c1cccc([N+](=O)[O-])c1)[n+]2[O-]
dose: 50.0 mg/kg/injection, schedule: Q01DX005 (ip), vehicle: saline with Tween-80
  T/C: 88 % of control
dose: 100.0 mg/kg/injection, schedule: Q01DX005 (ip), vehicle: saline with Tween-80
  T/C: 93 % of control
dose: 200.0 mg/kg/injection, schedule: Q01DX005 (ip), vehicle: saline with Tween-80
  T/C: 104 % of control
